Experimental data taken from patent US20150224061A1, “NANOCONSTRUCTS WITH PHARMACOLOGICAL ACTIVITY” (UNIVERSITA' DEGLI STUDI DI MILANO - BICOCCA, priority 2012, published 2015).
Like-named read-outs stand apart in the source and are kept apart here. Where no end group is shown, it is not given here.

Key:
inflammatory arthritis = test: Arthritis induced by anti-collagen antibodies/LPS; assay type: in vivo, C57BL6 mice; conditions: treated on days −1, 0, +1, +3, +6, +9, +12
Experimental: FIG. 5. Inhibition of the development of arthritis. FIG. 5A: the mice were treated endovenously, or were not treated, at −1, 0, +1, +3, +6, +9, and +12 days with the nanoconstructs (MYTS-VIVIT) or with nanoconjugates MYTS-VEET (a peptide similar to VIVIT in which the sequence has been modified, thus losing specificity for Cn). Day 0 represents the start of the procedure of inducing arthritis. The clinical points indicative of the severity of the arthritis were assessed on the days indicated. In FIG. 5B, photographs showing arthritis on the seventh day in a treated mouse and in an untreated mouse are shown.
Rheumatoid arthritis (AR) is a chronic, debilitating systemic autoimmune disease characterized by an immunological inflammatory reaction of the mesenchymal tissue and of the synovial fluid accompanied by polyarticular synovitis. Over time, it leads to the progressive destruction of the articular and periarticular structures. […] To verify whether the nanoconstructs of the present invention are able to inhibit the development of inflammatory arthritis, a model of arthritis induced by anti-collagen antibody of the IL/LPS type was used. In particular, six C57BL6 mice were treated on days −1, 0, +1, +3, +6, +9, +12 with the nanoconstructs of example 1.

[1] = test system: NFAT-dependent edema induced by LPS; test: LPS-induced paw edema model; assay type: in vivo, mouse; conditions: subcutaneous pretreatment 2 hours prior to LPS in the paw
Experimental: FIG. 4. Inhibition of the NFAT pathway in the formation of edema of the paw in response to LPS. The animals were pretreated, or not, with the nanoconstructs (MYTS-VIVIT) or FK-506 (approximately 2 h) and were then treated locally with LPS.
To assess whether the nanoparticles of the present invention are able to inhibit in vivo the formation of LPS-induced edema, the mice were pretreated, or not, with the nanoconstructs of example 1 or FK506 as control sub-cutaneously for 2 hours prior to the injection of LPS in the paw.

[2] = test system: skin transplant rejection; test: Skin transplant rejection model (male skin into female mice); assay type: in vivo, mouse
Experimental: FIG. 6. Inhibition of skin transplant rejection. Male skin was grafted in female mice. The mice were then injected endovenously, or not, with the nanoconstructs (MYTS-VIVIT or MYTS-VEET) on days −1, 0, +1, +3, +6, +9, +12, and +15. In addition, the mice were then left without treatment for a further 20 days. The boxes M in M represent the untreated controls and show the skin transplant from male mouse to male mouse. […] The boxes M in F represent the skin transplant from male mouse to female mouse without treatment with the nanoconstructs. The scar of the rejection is clearly visible on day 30. The rejection can also be seen in boxes M in F (male into female) treated with the control MYTS-VEET nanoconstructs. Vice versa, in the boxes representing the transplant from male to female with MYTS-VIVIT treatment (M in F+MYTS-VIVIT), the acceptance of the graft is clearly visible. The bar chart beneath represents a quantification of the results of the experiment. To summarize, the transplant was accepted in 80% of cases treated with the MYTS-VIVIT nanoconstructs, whereas it was rejected in 100% of untreated cases and in 80% of cases treated with the control MYTS-VEET nanoconstruct.
To verify whether the nanoconstructs of the present invention are able to inhibit transplant rejection, a skin transplant model was used. […]

[3] = test system: transduction signal pathway of NFAT; test: GFP+ Ly6G+ spleen neutrophils in IL-2/GFP mutant mice after LPS; assay type: in vivo, mouse; conditions: i.v. two hours before LPS injection
Experimental: FIG. 3. The NFAT pathway is active in the neutrophils. Mice genetically modified by IL-2/GFP were treated, or not, with MYTS-VIVIT and were then injected intravenously two hours after with LPS. The bars represent the percentage of GFP+Ly6G^+ spleen neutrophils […] after the treatment with LPS. In this mouse model, GFP was inserted in the second exon of IL-2 and therefore has the same regulation of IL-2.
Mutant mice (obtained from laboratories of Ronald H. Schwartz, NIH Bethesda) were used for this experiment. In this mouse model, the GFP protein was inserted into the second exon of the gene IL-2, and therefore had the same regulation of IL-2. As mentioned before, IL-2 is a marker of NFAT activation. If the mice genetically modified with regard to IL-2/GFP are treated with LPS, a significant percentage of GFP+ neutrophils (Ly6G+ cells) can be measured in the spleen two hours after treatment. To verify whether the nanoconstructs of the present invention are able to inhibit the signal pathway of NFAT in vivo, mutant mice were injected endovenously with the nanoconstructs as prepared in example 1 two hours before the injection of LPS.

NF-kB = test: TNFα production (ELISA) by LPS-stimulated DCs derived from bone marrow, marker of NF-kB pathway; assay type: cell-based, mouse; conditions: 2 h pretreatment, then LPS, 18 hours
Experimental: (§1) FIG. 2. Inhibition of the transduction of the NFAT signals by means of the MYTS-VIVIT nanoconstructs in DCs derived from bone marrow. The DCs were pre-treated, or not, with the indicated quantities of MYTS-VIVIT for two hours and then activated with LPS for 18 hours. The quantities of IL-2 and TNFα in the supernatant were measured using the ELISA method.
(§2) In order to assess whether nanoconstructs are able to inhibit the transduction signal pathway of NFAT, the following experiments were carried out in vitro. After exposure to LPS, the DCs derived from bone marrow were able to produce various inflammatory cytokines, including IL-2 and TNFα. IL-2 was strictly NFAT-dependent, whereas the production of TNFα was NF-kB-dependent and NFAT-independent. IL-2 and TNFα are therefore valid markers respectively of the activation pathway of NFAT and NF-kB. After two hours of pretreatment with the nanoconstructs obtained as described in example 1, the DCs derived from bone marrow were stimulated with LPS and the quantity of released cytokines was measured using the ELISA method 18 hours later.
(§3) DCs produce IL-2 in an NFAT-dependent manner if stimulated with LPS. To assess the efficacy of the VIVIT peptide, DCs derived from bone marrow were transduced with a sequence coding the VIVIT peptide fused with the GFP protein through use of a retroviral vector.

[4] = test system: transduction signal pathway of NFAT; test: IL-2 production (ELISA) by LPS-stimulated DCs derived from bone marrow, marker of NFAT pathway; assay type: cell-based, mouse; conditions: 18 hours; for inhibition of NFAT activity (IL-2 release, ELISA): peptide 25 uM pretreatment, LPS 100 ng/ml
Experimental: as §1, §2, §3
Since DCs are phagocyte cells, we firstly used the non-modified peptide, assuming that this could reach the cell cytosol once entered into the endosomal compartment. We then carried out co-cultures of DCs with the VIVIT peptide, and the inhibition of NFAT was analyzed by measuring the production of IL-2 following stimulation with LPS. […] A modified VIVIT peptide was then assessed, to which a […] 11-arginine tail had been attached. It has, in fact, been described in the literature that this modification can allow entry into the cells.

[5] = test system: NF-kB transcription factor; conditions: cited from earlier work
NFAT = conditions: cited from earlier work
calcineurin (Cn) = conditions: cited from earlier work
neurons = conditions: i.v., 1 hour, magnet applied to the skull
Experimental: Then, a staining of the neurons was carried out with the fluorescent probe NeuroTrace (which stains the substance Nissi, which is abundant in neuronal cells and is formed from ribosomal RNA associated with the endoplasmic reticulum).

**Q.** What does the source list for “MYTS-VIVIT (H-CGGGKMAGPVIVITGPHEE-OH; not fully specified; printed as NH2—CGGGKMAGPVIVITGPHEE-COOH)”?
**A.** development of arthritis (clinical points) (inflammatory arthritis): inhibit the development of arthritis very effectively; formation of LPS-induced paw edema [1]: significantly inhibited; skin transplants accepted ([2]; i.v. treatment from day −1, after four weeks / day 30): 80%; skin transplants accepted ([2]; i.v. treatment from day −1, after four weeks / day 30, listed as nanoconstructs bearing the VIVIT peptide): 90%; percentage of GFP+ Ly6G+ spleen neutrophils [3]: strong impact on the ability of the neutrophils to produce GFP; TNFα released (ELISA) (NF-kB): not the production of TNFα; IL-2 released (ELISA) ([4]; 2 h pretreatment, then LPS): completely block IL-2

**Q.** With “NH2—CGGGKMAGPVIVITGPHEE-COOH (H-CGGGKMAGPVIVITGPHEE-OH; listed as Homo sapiens)” as the substance, how does the “inhibition of NFAT activity (IL-2 release, ELISA)” value (from here on “inhibition of NFAT activity”) [4] read?
**A.** unable to penetrate into the cytosol of the DCs and to block the activity of NFATs

**Q.** And the “inhibition of NFAT activity” value ([4]; listed as free, non-modified VIVIT peptide)?
**A.** did not make it possible to interfere with the activity of NFAT

**Q.** Which “inhibition of NF-kB (gene reporter)” value [5] does the source give for Val-Ile-Val-Ile-Thr [VIVIT] here?
**A.** not the activity of the NF-kB transcription factor

**Q.** And the “inhibition of NFAT (gene reporter)” value (NFAT)?
**A.** effectively inhibits NFAT and its activity

**Q.** And the “affinity for Cn” value (calcineurin (Cn))?
**A.** increased affinity for Cn

**Q.** What does the source list for enfuvirtide?
**A.** accumulation of AF660-labeled drug in neurons (confocal microscopy) (neurons; listed as free enfuvirtide): only in the case of the drug conjugated to the MYTS nanoparticles; accumulation of AF660-labeled drug in neurons (confocal microscopy) (neurons; listed as labeled drug not conjugated to the nanoparticles): traces of fluorescence cannot be seen

**Q.** Which “inhibition of NFAT activity” value [4] does the source give for “peptide with an 11-arginine tail: peptide with sequence SEQ ID NO:1 conjugated with an 11-arginine tail (CGGGKMAGPVIVITGPHEE; also: 11-arginine tail conjugated, end not given here; listed as Homo sapiens)” here?
**A.** unable to penetrate into the cytosol of the DCs and to block the activity of NFATs

**Q.** What about the “inhibition of NFAT activity” value ([4]; listed as modified VIVIT peptide) of the same substance?
**A.** not possible to observe any inhibition of the NFAT pathway
